The text below walks through data of BindingDB's records for doi:10.1021/acs.jmedchem.8b00605 (Leiden University, 2018).

The experiment deals with T1, C-C chemokine receptor type 1 (Homo sapiens, UniProt P32246).
T1 sequence (P32246 whole entry): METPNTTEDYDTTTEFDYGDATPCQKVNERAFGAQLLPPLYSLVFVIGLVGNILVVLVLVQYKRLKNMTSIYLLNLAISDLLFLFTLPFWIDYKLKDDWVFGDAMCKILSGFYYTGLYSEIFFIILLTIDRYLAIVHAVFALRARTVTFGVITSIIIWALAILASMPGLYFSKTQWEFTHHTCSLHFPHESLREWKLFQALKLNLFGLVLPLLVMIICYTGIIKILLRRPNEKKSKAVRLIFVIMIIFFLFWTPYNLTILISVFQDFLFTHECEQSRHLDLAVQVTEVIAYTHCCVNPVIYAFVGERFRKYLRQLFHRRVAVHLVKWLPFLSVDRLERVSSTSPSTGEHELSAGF
Description: Displacement of [3H]-CCR2-RA-[R] from human TEV protease site linked CCR1 expressed in human U20S cell membranes co-expressing Gal4-VP16 transcription factor after 120 mins by scintillation spectrometry. (In general: Loss of bound radioactivity is the signal in a displacement assay; it reports binding, not function.)

In the case of `CC(=O)C1=C(O)C(=O)N(c2ccc(Br)cc2F)C1C1CCCCC1` (stereo unspecified), the Ki (commonly the equilibrium dissociation constant of an inhibitor or competing ligand from its target) was 10 nM.
